# Experimental data as given in PMC10267100 (Communications Biology, 2023).
# Experiments:
# [1] = test system: M1 cells overexpressing PTP1B; test: IL-6 dose response (differentiation) in M1 cells overexpressing PTP1B; type: cell-based, murine; conditions: IL-6 dose response, Fig. 1a, approximate
# Source text: The M1 murine myeloid leukemic cell line responds in a dose-dependent manner to IL-6 stimulation. Culturing M1 cells in IL-6 results in differentiation from monocytic-like progenitor cells into terminally differentiated macrophages that undergo cell death. […] This was in contrast to five other phosphatases that were similarly overexpressed. Using an Incucyte growth assay, the growth of wild-type M1 cells was compared to that of M1 cells overexpressing HALO-PTP1B both with and without IL-6 (Fig. 1b). […] As expected, there was no difference in the growth rate of any of these cell lines in the absence of IL-6. […] To confirm that the activation loop of the JAKs are indeed a target of PTP1B, dephosphorylation assays with activated recombinant JAK kinase domains were performed in vitro. All four members of the JAK family were dephosphorylated in a PTP1B-dependent manner although JAK1 was dephosphorylated to a lesser extent than others (Fig. 1c). […]
# Murine PTP1B with an N-terminal Halo tag was sub-cloned into the Tet-On pfTRE3G expression vector for generation of a stable doxycycline-inducible Halo-mPTP1B expressing HEK293T cell line. […] 24 h post-transfection, cells were lysed in sample reducing buffer and analysed by SDS-PAGE and immunoblot as above (dephosphorylation assays). […]
# [2] = test system: WT M1 parental cells (M1 murine myeloid leukemic cell line); test: IL-6 dose response (differentiation) in WT M1 cells; type: cell-based; conditions: IL-6 dose response, Fig. 1a, approximate
# Source text: The M1 murine myeloid leukemic cell line responds in a dose-dependent manner to IL-6 stimulation. Culturing M1 cells in IL-6 results in differentiation from monocytic-like progenitor cells into terminally differentiated macrophages that undergo cell death. […] This was in contrast to five other phosphatases that were similarly overexpressed. Using an Incucyte growth assay, the growth of wild-type M1 cells was compared to that of M1 cells overexpressing HALO-PTP1B both with and without IL-6 (Fig. 1b). […] As expected, there was no difference in the growth rate of any of these cell lines in the absence of IL-6. […] To confirm that the activation loop of the JAKs are indeed a target of PTP1B, dephosphorylation assays with activated recombinant JAK kinase domains were performed in vitro. All four members of the JAK family were dephosphorylated in a PTP1B-dependent manner although JAK1 was dephosphorylated to a lesser extent than others (Fig. 1c).
# Fig. 1 PTP1B dephosphorylates the JAK activation loops. a IL-6 dose response curves for phosphatases overexpressed in the M1 cell line. […] (Top) Immunoblot (IB) probing for phosphorylated-JAK (P-JAK1 antibody) activation loop. (Bottom) Ponceau stained membrane to confirm equal input of proteins on gel. Data are representative of 3 independent experiments. d Overexpression of FLAG-JAK and HALO-PTP1B in HEK293T cells. […]
substance,measurement,setting,value
IL-6: cytokine used to stimulate M1 cells,EC50 of IL-6 (induction of differentiation),[1],approximately 10 ng/mL
same,EC50 of IL-6 (induction of differentiation),[2],~2 ng/mL
